Results reported in patent US9809598B2 (Merck Patent GmbH, priority 2014, dated 2017).
Structures can show the parent of a compound that is named as a salt.

Key:
TNKS1 = target: T1, TNKS1 (Homo sapiens, UniProt O95271); test: TNKS1 activity ELISA (autoparsylation assay); type: biochemical; settings: GST-tagged Tnks-1 (1023-1327 aa)
T1 construct: GST-tagged Tnks-1 (1023-1327 aa, prepared in-house); made in house
Method: (§1) Description of the TNKS1 and TNKS2 ELISA Assay
(§2) Biochemical Activity Testing of TNKS 1 and 2: Activity ELISA (Autoparsylation Assay)
(§3) For analysis of autoparsylation activity of TNKS 1 and 2 an activity ELISA iss performed: In the first step GST tagged TNKS is captured on a Glutathione coated plate. Then the activity assay with biotinylated NAD is performed in the absence/presence of the compounds. During the enzymatic reaction GST tagged TNKS transfers biotinylated ADP-ribose to itself from biotinylated NAD as co-substrate. For the detection streptavidin-HRP conjugate is added that binds to the biotinylated TNKS and is thereby captured to the plates. The amount of biotinylated resp. autoparsylated TNKS is detected with a luminescence substrate for HRP. The level of the luminescence signal correlats directly with the amount of autoparsylated TNKS and therefore with activity of TNKS.
(§4) The activity ELISA is performed in 384 well Glutathione coated microtiter plates (Express capture Glutathione coated plate, Biocat, Heidelberg, Germany). The plates are pre-equilibrated with PBS. […] The plates are washed 3 times with PBS-Tween-20. The wells are blocked by incubation at room temperature for 20 minutes with 50 μl blocking buffer (PBS, 0.05% Tween-20, 0.5% BSA). Afterwards the plates are washed 3 times with PBS-Tween-20. […] The reaction is stopped by 3 times washing with PBS-Tween-20. For the detection 50 μl of 20 ng/μl Streptavidin, HRP conjugate (MoBiTec, Göttingen, Germany) in PBS/0.05% Tween-20/0.01% BSA are added and the plates are incubated for 30 minutes at room temperature. After three times washing with PBS-Tween-20 50 μl of SuperSignal ELISA Femto Maximum sensitivity substrate solution (ThermoFisherScientific (Pierce), Bonn, Germany) are added. Following a 1 minute incubation at room temperature luminescence signals are measured with an Envision multimode reader (Perkin Elmer LAS Germany GmbH) at 700 nm. The full value used is the inhibitor-free reaction. […] The inhibitory values (IC50) are determined using either the program Symyx Assay Explorer® or Condosseo® from GeneData.

TNKS2 = target: T2, TNKS2 (Homo sapiens, UniProt Q9H2K2); test: TNKS2 activity ELISA (autoparsylation assay); type: biochemical; settings: GST-tagged Tnks-2 (873-1166 aa); read-out: IC50 [M] TNKS2 ELISA
T2 construct: GST-tagged Tnks-2 (873-1166 aa, prepared in-house); made in house
Method: as §1, §2, §3, §4

Tankyrases = settings: read-out: EC50 [M] TNKS cellular assay; DLD1 cells, 24 hours, Axin2 increase

T1 sequence (O95271 1023-1327): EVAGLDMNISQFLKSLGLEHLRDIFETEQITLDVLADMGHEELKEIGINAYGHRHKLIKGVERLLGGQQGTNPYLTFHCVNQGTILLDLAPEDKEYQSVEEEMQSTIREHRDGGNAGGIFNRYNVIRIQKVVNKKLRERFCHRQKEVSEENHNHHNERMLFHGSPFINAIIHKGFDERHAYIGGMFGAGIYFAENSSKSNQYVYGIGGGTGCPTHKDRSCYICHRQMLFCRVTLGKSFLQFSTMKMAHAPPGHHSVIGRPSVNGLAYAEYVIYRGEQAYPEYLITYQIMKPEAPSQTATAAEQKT
T2 sequence (Q9H2K2 873-1166): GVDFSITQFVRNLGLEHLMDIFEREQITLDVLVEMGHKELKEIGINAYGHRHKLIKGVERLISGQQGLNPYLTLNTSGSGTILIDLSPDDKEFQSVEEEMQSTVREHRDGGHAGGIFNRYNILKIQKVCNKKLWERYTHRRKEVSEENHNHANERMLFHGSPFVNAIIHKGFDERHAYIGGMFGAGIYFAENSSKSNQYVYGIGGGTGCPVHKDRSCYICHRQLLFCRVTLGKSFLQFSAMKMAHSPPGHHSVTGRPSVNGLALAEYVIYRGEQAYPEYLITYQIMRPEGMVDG

In the case of `O=C(c1ccc(F)c(F)c1)C1CCN(C(=O)CCCc2nc3c(c(=O)[nH]2)COCC3)CC1` [Compound C262, 2-{4-[4-(3,4-Difluorobenzoyl)-1-piperidyl]-4-oxo-butyl}-3,5,7,8-tetrahydro-pyrano[4,3-d]pyrimidin-4-one], the IC50 (TNKS1) is reported as 7.1 nM and the IC50 (TNKS2) is reported as 1.2e-09 M.

Compound `CC(C)n1cc(C(=O)C2CCN(C(=O)CCCc3nc4c(cnn4C)c(=O)[nH]3)CC2)cn1` [Compound C218, 6-{4-[4-(1-Isopropyl-1H-pyrazole-4-carbonyl)-piperidin-1-yl]-4-oxo-butyl}-1-methyl-1,5-dihydro-pyrazolo[3,4-d]pyrimidin-4-one] has an IC50 (TNKS1) of 2 nM, an IC50 (TNKS2) of 8.5e-10 M and an EC50 (Tankyrases) of 1.4e-07 M.

`O=C(c1ccc(F)cc1)C1CCN(C(=O)CCCc2noc3ccccc23)CC1` [Compound C259, 4-(1,2-Benzoxazol-3-yl)-1-[4-(4-fluorobenzoyl)-1-piperidyl]butan-1-one] gave an IC50 (TNKS1) of 730 nM and an IC50 (TNKS2) of 4.6e-07 M.

In the case of `CC(C)c1cc(=O)[nH]c(CCCC(=O)N2CCC(C(=O)c3cnn(C)c3)CC2)n1` [Compound C257, 4-Isopropyl-2-{4-[4-(1-methylpyrazole-4-carbonyl)-1-piperidyl]-4-oxo-butyl}-1H-pyrimidin-6-one trifluoroacetate], the IC50 (TNKS1) is reported as 110 nM, the IC50 (TNKS2) is reported as 5.8e-08 M and the EC50 (Tankyrases) is reported as 9.3e-06 M.

`COc1ccc(C(=O)C2CCN(C(=O)CCCc3cn4cccc4c(=O)[nH]3)CC2)cc1` [Compound C2, 3-{4-[4-(4-Methoxy-benzoyl)-piperidin-1-yl]-4-oxo-butyl}-2H-pyrrolo[1,2-a]-pyrazin-1-one] showed an IC50 (TNKS1) of 0.24 nM, an IC50 (TNKS2) of 1.4e-10 M and an EC50 (Tankyrases) of 5e-10 M.

With `CC(C)(O)c1ccc(C(=O)C2CCN(C(=O)CCCc3nc4c(c(=O)[nH]3)COCC4)CC2)cc1` [Compound C200, 2-(4-{4-[4-(1-Hydroxy-1-methyl-ethyl)-benzoyl]-piperidin-1-yl}-4-oxo-butyl)-3,5,7,8-tetrahydro-pyrano[4,3-d]pyrimidin-4-one] the IC50 (TNKS1) was 170 nM, the IC50 (TNKS2) was 2.2e-08 M and the EC50 (Tankyrases) was 3.7e-06 M.

In the case of `COc1ccc(C(=O)C2CCN(C(=O)CCCc3nc(C)c(C)c(=O)[nH]3)CC2)cn1` [Compound C241, 2-{4-[4-(6-Methoxy-pyridine-3-carbonyl)-piperidin-1-yl]-4-oxo-butyl}-5,6-dimethyl-3H-pyrimidin-4-one], the IC50 (TNKS1) is reported as 11 nM, the IC50 (TNKS2) is reported as 4.9e-09 M and the EC50 (Tankyrases) is reported as 3.5e-08 M.

Work on `COc1ccc(C(=O)C2CCN(C(=O)CCCc3nc(C(C)C)cc(=O)[nH]3)CC2)cn1` [Compound C256, 4-Isopropyl-2-{4-[4-(6-methoxypyridine-3-carbonyl)-1-piperidyl]-4-oxo-butyl}-1H-pyrimidin-6-one trifluoroacetate] yielded an IC50 (TNKS1) of 160 nM, an IC50 (TNKS2) of 6.5e-08 M and an EC50 (Tankyrases) of 2.6e-06 M.

Compound `Cc1nc(CCCC(=O)N2CCC(C(=O)c3cnn(C)c3)CC2)[nH]c(=O)c1C` [Compound C242, 5,6-Dimethyl-2-{4-[4-(1-methyl-1H-pyrazole-4-carbonyl)-piperidin-1-yl]-4-oxo-butyl}-3H-pyrimidin-4-one] has an IC50 (TNKS1) of 24 nM, an IC50 (TNKS2) of 7.1e-09 M and an EC50 (Tankyrases) of 8.8e-07 M.

`CCc1cc(=O)[nH]c(CCCC(=O)N2CCC(C(=O)c3ccc(F)cc3)CC2)n1` [Compound C252, 6-Ethyl-2-{4-[4-(4-fluoro-benzoyl)-piperidin-1-yl]-4-oxo-butyl}-3H-pyrimidin-4-one] showed an IC50 (TNKS1) of 35 nM and an IC50 (TNKS2) of 1.7e-08 M.

For `COc1ccc(C(=O)C2CCN(C(=O)CCCc3noc4ccccc34)CC2)cc1` [Compound C258, 4-(1,2-Benzoxazol-3-yl)-1-[4-(4-methoxybenzoyl)-1-piperidyl]butan-1-one], the IC50 (TNKS1) was 150 nM and the IC50 (TNKS2) was 9.5e-08 M.

For `COc1ccc(C(=O)C2CCN(C(=O)CCCc3cn4cncc4c(=O)[nH]3)CC2)cc1` [Compound C10, 6-{4-[4-(4-Methoxy-benzoyl)-piperidin-1-yl]-4-oxo-butyl}-7H-imidazo[1,5-a]-pyrazin-8-one], the IC50 (TNKS1) was 0.32 nM, the IC50 (TNKS2) was 1.3e-10 M and the EC50 (Tankyrases) was 6.7e-09 M.

`COc1ccc(C(=O)C2CCN(C(=O)CCCc3cn4cccc4c(=O)[nH]3)CC2)cc1C` [Compound C4, 3-{4-[4-(4-Methoxy-3-methyl-benzoyl)-piperidin-1-yl]-4-oxo-butyl}-2H-pyrrolo[1,2-a]pyrazin-1-one] showed an IC50 (TNKS1) of 0.14 nM, an IC50 (TNKS2) of 1.5e-10 M and an EC50 (Tankyrases) of 3.4e-10 M.

In the case of `COc1ccc(C(=O)C2CCN(C(=O)CCCc3nncc4ccccc34)CC2)cc1` [Compound C250, 1-[4-(4-Methoxy-benzoyl)-piperidin-1-yl]-4-phthalazin-1-yl-butan-1-one], the IC50 (TNKS1) is reported as 2.8 nM, the IC50 (TNKS2) is reported as 1.1e-09 M and the EC50 (Tankyrases) is reported as 4.6e-08 M.

In the case of `Cn1cc(C(=O)C2CCN(C(=O)CCCc3nn4cccc4c(=O)[nH]3)CC2)cn1` [Compound C146, 2-{4-[4-(1-Methyl-1H-pyrazole-4-carbonyl)-piperidin-1-yl]-4-oxo-butyl}-3H-pyrrolo[2,1-f][1,2,4]triazin-4-one], the IC50 (TNKS1) is reported as 2.2 nM, the IC50 (TNKS2) is reported as 1.4e-09 M and the EC50 (Tankyrases) is reported as 8.7e-08 M.

`COc1ccc(C(=O)C2CCN(C(=O)CCCc3nc4c(C)scc4c(=O)[nH]3)CC2)cn1` [Compound C114] showed an IC50 (TNKS1) of 0.68 nM.

Work on `CCn1cc(C(=O)C2CCN(C(=O)CCCc3nc4c(c(=O)[nH]3)COCC4)CC2)cn1` [Compound C228, 2-{4-[4-(1-Ethyl-1H-pyrazole-4-carbonyl)-piperidin-1-yl]-4-oxo-butyl}-3,5,7,8-tetrahydro-pyrano[4,3-d]pyrimidin-4-one] yielded an IC50 (TNKS1) of 14 nM, an IC50 (TNKS2) of 2.2e-09 M and an EC50 (Tankyrases) of 2.9e-06 M.

For `CCc1cc(=O)[nH]c(CCCC(=O)N2CCC(C(=O)c3ccc(OC)cc3)CC2)n1` [Compound C251, 6-Ethyl-2-{4-[4-(4-methoxy-benzoyl)-piperidin-1-yl]-4-oxo-butyl}-3H-pyrimidin-4-one], the IC50 (TNKS1) was 7.8 nM, the IC50 (TNKS2) was 2.9e-09 M and the EC50 (Tankyrases) was 7e-08 M.

`CCc1cc(=O)[nH]c(CCCC(=O)N2CCC(C(=O)c3ccc(OC)nc3)CC2)n1` [Compound C253, 6-Ethyl-2-{4-[4-(6-methoxy-pyridine-3-carbonyl)-piperidin-1-yl]-4-oxo-butyl}-3H-pyrimidin-4-one] gave an IC50 (TNKS1) of 31 nM, an IC50 (TNKS2) of 1.9e-08 M and an EC50 (Tankyrases) of 7e-07 M.

`COc1ccc(C(=O)C2CCN(C(=O)CCCc3nc(C(C)C)cc(=O)[nH]3)CC2)cc1` [Compound C254, 6-Isopropyl-2-{4-[4-(4-methoxy-benzoyl)-piperidin-1-yl]-4-oxo-butyl}-3H-pyrimidin-4-one trifluoroacetate] was tested, and the IC50 (TNKS1) was 28 nM, the IC50 (TNKS2) was 1.5e-08 M and the EC50 (Tankyrases) was 2.6e-07 M.

For `COc1ccc(C(=O)C2CCN(C(=O)CCCc3cn4nc(C)cc4c(=O)[nH]3)CC2)cc1` [Compound C12, 6-{4-[4-(4-Methoxy-benzoyl)-piperidin-1-yl]-4-oxo-butyl}-2-methyl-5H-pyrazolo[1,5-a]pyrazin-4-one], the IC50 (TNKS1) was 0.13 nM, the IC50 (TNKS2) was 1.4e-10 M and the EC50 (Tankyrases) was 4.9e-10 M.

With `CC(F)(F)c1ccc(C(=O)C2CCN(C(=O)CCCc3nc4c(c(=O)[nH]3)COCC4)CC2)cc1` [Compound C263, 2-{4-{4-[4-(1,1-Difluoroethyl)benzoyl]-1-piperidyl}-4-oxo-butyl}-3,5,7,8-tetra-hydropyrano[4,3-d]pyrimidin-4-one] the IC50 (TNKS1) was 5.1 nM and the IC50 (TNKS2) was 3.3e-10 M.

`CC(C)c1cc(=O)[nH]c(CCCC(=O)N2CCC(C(=O)c3ccc(F)cc3)CC2)n1` [Compound C255, 2-{4-[4-(4-Fluorobenzoyl)-1-piperidyl]-4-oxo-butyl}-4-isopropyl-1H-pyrimidin-6-one trifluoroacetate] showed an IC50 (TNKS1) of 110 nM, an IC50 (TNKS2) of 4.9e-08 M and an EC50 (Tankyrases) of 2.7e-06 M.
